Results taken from patent US10258580B2, “Cannabinoids for use in the treatment of neurodegenerative diseases or disorders” (priority 2011, dated 2019).

Columns and labels:
Aβ-stimulated C6 cells [1] = test: Nitrite (NO) production in Aβ-stimulated C6 cells, Griess reaction; type: cell-based; settings: Aβ (1-42) 1 μg/mL, 24 hours; cannabinoid 10^−9 to 10^−6 M
Description: (§1) The cannabinoids tested were CBG, CBC, and CBDV. The cannabinoids were isolated from cannabis plant material and purified. The cannabinoids were tested at a concentration of 10^−9 to 10^−6 M. The cannabinoids were dissolved in DMSO at the concentration of 10^−2M and then diluted in DMEM to their final concentration.
(§2) Glial cells (C6) were cultured in 10% FBS supplemented DMEM. PC12 neuronal cell were cultured in 10% FBS plus 5% HS supplemented DMEM and SHY-5SY neuronal cells were cultured in 10% FBS supplemented RPMI. Neuronal cells were differentiated with retinoic acid. After 24 hours of starvation glial cells, differentiated PC12 and SHY-5SY neuronal cells were treated with the cannabinoids, CBC, CBG and CBDV, in the presence or absence of 1 μg/mL of Aβ (1-42) for the following 24 hours.
Production of NO was assayed by measuring the amount of nitrite in the culture medium of C6 cells 24 hours after Aβ(1-42) (1 μg/mL) stimulation using a spectrophotometric assay based on Griess reaction.

Aβ-stimulated C6 cells [2] = test: Aβ-stimulated C6 cell viability/proliferation, MTT assay; type: cell-based; settings: Aβ (1-42) 1 μg/mL, 24 hours
Description: as §1, §2
(§3) Cell viability was determined using 3(4,5-dimethylthiazol-2yl)2,5-diphenyl-2H-tetrazolium bromide (MTT) assay which is an assay based on the ability of viable cells to convert MTT in formazan salt.
(§4) The cells were plated in 96-well culture plates at the density of 5×10^3 cells/well and allowed to adhere at 37° C. for 2 hours. Thereafter, the medium was replaced with fresh medium and the cells were treated as above described. After 24 hours 25 μl MTT (5 mg/ml in DMEM) was added to the cells and incubated for additional 3 hours at 37° C. After this time, the cells were lysed and the dark blue crystals solubilized with 125 μl of a solution containing 50% (v/v) N,N, dimethylformamide, 20% (w/v) sodium dodecylsulphate, with an adjusted pH of 4.5. The optical density of each well was measured with a microplate spectrophotometer (Titertek Multiscan MCC/340) equipped with a 620 nm filter.

iNOS [3] = test: iNOS mRNA level in Aβ-stimulated C6 cells, semi-quantitative RT-PCR; type: cell-based; settings: Aβ (1-42) 1 μg/mL, 24 hours; 10^−7 M
Description: as §2
The mRNA level of iNOS in C6 cells was determined using the semi-quantitative RT-PCR method. The PCR-primers were selected according to appropriate DNA sequences. 15 μl aliquots of PCR products were electrophoretically fractionated through 1% agarose gel containing the fluorescent Vistra green dye. Labelling intensity of the PCR product, which is linear to the amount of DNA, was quantified using the Molecular Imager FX and Quantity One software (Biorad, Milan, Italy).

SH-SY5Y cells [4] = test: Aβ-induced SH-SY5Y cell viability, MTT assay (Example 1); type: cell-based, human; settings: Aβ (1-42) 1 μg/mL
Description: as §1, §2, §3, §4

TNF-alpha [5] = test: TNF-alpha protein expression in Aβ-stimulated C6 cells, western blot; type: cell-based; settings: Aβ (1-42) 1 μg/mL, 24 hours, 10^−7 M
Description: (§5) Glial cells (C6) were cultured in 10% FBS supplemented DMEM, and SHY-5SY were cultured in 10% FBS supplemented RPMI. Neuronal cells were differentiated with retinoic acid. After 24 hours of starvation glial cells and SHY-5SY were treated with CBDV (10^−7M), CBD (10^−7 M), CBDVA (10^−7 M), CBDA (10^−7 M) and THCVA (10^−7 M) in presence or absence of Aβ (1-42) (1 μg/mL) for following 24 hours.
(§6) Western blot analysis was performed on C6 and SHY-5SY cell lysate. Briefly cells were rapidly homogenized in 60 μl of ice-cold hypotonic lysis buffer [10 mM HEPES, 1.5 mM MgCl2, 10 mM KCl, 0.5 mM phenylmethylsulfonyl fluoride, 1.5 μg/mL soybean trypsin inhibitor, pepstatin A 7 μg/mL, leupeptin 5 μg/mL, 0.1 mM benzamidine, 0.5 mM dithiothreitol (DTT)]. After this time, the cytoplasmic fractions were then obtained by centrifugation at 13000 g for 10 min and protein concentration in the samples was determined with Bio-Rad assay kit according to the manufacturer's instructions. Immunoblotting analysis of iNOS, COX-2, TNF-a, Bcl2 and actin were performed on a cytosolic fraction. Protein concentration was determined and equivalent amounts (50 μg) of each sample were separated under reducing conditions in 12% SDS-polyacrylamide minigel. […] The protein bands were scanned and densitometrically analyzed with a GS-800 imaging densitometer (Bio-Rad Laboratories, Calif., USA).

COX2 = COX2 protein expression in Aβ-stimulated C6 cells, western blot; type: cell-based; settings: Aβ (1-42) 1 μg/mL, 24 hours, 10^−7 M
Description: as §5, §6

iNOS [6] = test: iNOS protein expression in Aβ-stimulated C6 cells, western blot; type: cell-based; settings: Aβ (1-42) 1 μg/mL, 24 hours, 10^−7 M
Description: as §5, §6

TNF-alpha [7] = test: TNF-alpha release in supernatant of Aβ-treated C6 cells, ELISA; type: cell-based; settings: Aβ (1-42) 1 μg/mL, 24 hours, 10^−7 M
Description: as §5
ELISA essay was performed on supernatants of cultured cells. Nunc Maxisorp 96-well microtiter plates (Gibco, Paisley, UK) were coated overnight at 4° C. with 1 μg/well of specific monoclonal antibody anti-TNF, diluted in 0.5 M Na2CO3. The wells were washed three times and then blocked with phosphate-buffered saline (PBS) containing 0.05% (v/v) Tween 20 and 0.3% Fetal Bovine Serum (ELISA buffer) for 30 min at room temperature. The standards and samples were added in a 100-μl volume and incubated at 37° C. for 1.5 h. The standard curve was generated using 0.1 ng to 1 μg/well of purified protein, diluted in ELISA buffer. Following four washes in ELISA buffer, monoclonal antibodies were diluted and added to the wells for 1 h. […] The colour reaction was stopped by addition of HCl and optical densities at 490 nm were measured using a microplate reader.

Bcl2 = Bcl2 protein expression in Aβ-treated SH-SY5Y cells, western blot; type: cell-based, human; settings: Aβ (1-42) 1 μg/mL, 24 hours, 10^−7 M
Description: as §5, §6

SH-SY5Y cells [8] = test: Aβ-induced SH-SY5Y cell viability, MTT/formazan test (Example 2); type: cell-based, human; settings: Aβ (1-42) 1 μg/mL, 24 hours; 10^−7 M
Description: as §5
as §4, with “Cell activation/viability was determined using 3(4,5-dimethylthiazol-2yl)2,5-diphenyl-2H-tetrazolium bromide (MTT) assay, an assay based on the ability of viable cells to convert MTT in formazan salt. Briefly, the cells” for “The cells”

SH-SY5Y cells [9] = test: Aβ-induced SH-SY5Y viable cell number, cell counting by TC10 System; type: cell-based, human; settings: Aβ (1-42) 1 μg/mL, 24 hours; 10^−7 M
Description: as §5
In another set of experiments cell counting was performed by TC10 System (BIO-RAD), according to manufacturing instruction.

[10] = system: neuronal cultures exposed to glutamate; settings: in vitro, pure/synthetic preparations; cited from earlier work
[11] = in vivo, pure CBD; cited from earlier work

Question: Which “nitrite production in Aβ-stimulated C6 cells” value (shortened to “nitrite production”) (Aβ-stimulated C6 cells [1]) does the source give for `C=C(C)[C@@H]1CCC(C)=C[C@H]1c1c(O)cc(CCC)cc1O` [CBDV, cannabidivarin] here?
Answer: significantly reduced

Question: What about the “Aβ-stimulated C6 cell viability (cell proliferation, MTT)” value (“Aβ-stimulated C6 cell viability” below) (Aβ-stimulated C6 cells [2]; 10^−8 to 10^−6 M) of the same compound?
Answer: significantly inhibited cell proliferation

Question: And the “iNOS mRNA transcription in Aβ-stimulated C6 cells” value (iNOS [3])?
Answer: significant reduction of mRNA transcription

Question: What about the “Aβ-induced SH-SY5Y cell death (cell viability, MTT)” value (shortened to “Aβ-induced SH-SY5Y cell death”) (SH-SY5Y cells [4]; 10^−9 to 10^−6 M) of the same compound?
Answer: able to prevent

Question: And the TNF-alpha protein expression (TNF-alpha [5])?
Answer: significant reduction

Question: And the COX2 protein expression (COX2)?
Answer: significant reduction

Question: What about the iNOS protein expression (iNOS [6]) of the same compound?
Answer: significant reduction

Question: What about the “TNF-alpha release in the supernatant of cells” value (TNF-alpha [7]) of the same compound?
Answer: significantly reduced

Question: And the Bcl2 protein expression (Bcl2)?
Answer: significantly restored

Question: And the “Aβ SH-SY5Y cell death (viability, MTT/formazan test)” value (SH-SY5Y cells [8])?
Answer: able to prevent

Question: And the “Aβ induced SH-SY5Y cell death (viable cell number, cell counting)” value (shortened to “Aβ induced SH-SY5Y cell death”) (SH-SY5Y cells [9])?
Answer: able to prevent

Question: For `CCCCCc1cc(O)c2c(c1)OC(C)(C)[C@@H]1CCC(C)=C[C@@H]21` [THC, tetrahydrocannabinol], which “prevention of glutamate toxicity” value [10] is on record?
Answer: could be prevented to some extent

Question: Which “nitrite production” value (Aβ-stimulated C6 cells [1]) does the source give for `CCCCCc1cc(O)c(C/C=C(\C)CCC=C(C)C)c(O)c1` [CBG, cannabigerol, reference compound] here?
Answer: had no effect

Question: And the “Aβ-stimulated C6 cell viability” value (Aβ-stimulated C6 cells [2]; 10^−9 to 10^−6 M)?
Answer: had no effect

Question: And the “Aβ-induced SH-SY5Y cell death” value (SH-SY5Y cells [4]; 10^−9 to 10^−6 M)?
Answer: had no effect

Question: For `CCCCCc1cc(O)c2c(c1)OC(C)(CCC=C(C)C)C=C2` (stereo not shown) [CBC, cannabichromene], which “nitrite production” value (Aβ-stimulated C6 cells [1]) is on record?
Answer: significantly reduced

Question: What about the “Aβ-stimulated C6 cell viability” value (Aβ-stimulated C6 cells [2]; 10^−7 to 10^−6 M) of the same compound?
Answer: significantly inhibited cell proliferation

Question: And the “Aβ-induced SH-SY5Y cell death” value (SH-SY5Y cells [4]; 10^−6 M (highest concentration used))?
Answer: effective only at the highest concentration used

Question: For `CCCc1cc2c(c(O)c1C(=O)O)[C@@H]1C=C(C)CC[C@H]1C(C)(C)O2` [THCVA], which “Aβ SH-SY5Y cell death (viability, MTT/formazan test)” value (SH-SY5Y cells [8]) is on record?
Answer: had no effect

Question: And the “Aβ induced SH-SY5Y cell death” value (SH-SY5Y cells [9])?
Answer: No significant effect

Question: For `C=C(C)[C@@H]1CCC(C)=C[C@H]1c1c(O)cc(CCCCC)cc1O` [CBD, cannabidiol], which “Aβ SH-SY5Y cell death (viability, MTT/formazan test)” value (SH-SY5Y cells [8]) is on record?
Answer: able to prevent

Question: What about the “Aβ induced SH-SY5Y cell death” value (SH-SY5Y cells [9]) of the same compound?
Answer: able to prevent

Question: What about the “prevention of glutamate toxicity” value [10] of the same compound?
Answer: could be prevented to some extent

Question: And the “difference between treated and placebo treated animals” value [11]?
Answer: failed to find a difference

Question: Which results are given for `C=C(C)[C@@H]1CCC(C)=C[C@H]1c1c(O)cc(CCC)c(C(=O)O)c1O` [CBDVA, cannabidivarin acid]?
Answer: Aβ SH-SY5Y cell death (viability, MTT/formazan test) (SH-SY5Y cells [8]): able to prevent; Aβ induced SH-SY5Y cell death (viable cell number, cell counting) (SH-SY5Y cells [9]): able to prevent

Question: With `C=C(C)[C@@H]1CCC(C)=C[C@H]1c1c(O)cc(CCCCC)c(C(=O)O)c1O` [CBDA] as the compound, how does the “Aβ SH-SY5Y cell death (viability, MTT/formazan test)” value (SH-SY5Y cells [8]) read?
Answer: had no effect

Question: What about the “Aβ induced SH-SY5Y cell death” value (SH-SY5Y cells [9]) of the same compound?
Answer: No significant effect
